Measured values published in ChEMBL document CHEMBL1135897, “Design and synthesis of a novel L-dopa-entacapone codrug” (J Med Chem, 2002).

Legend:
[1] = The half-life period, to be stable in the stomach and liver at pH 5.0, was determined; format: ADME, tissue-based
[2] = Half-life period for the hydrolysis to entacopone and […] was determined in a liver homogenate at pH 7.4.; format: ADME, tissue-based

With `CCN(CC)C(=O)/C(C#N)=C/c1cc(OC(=O)N[C@@H](Cc2ccc(O)c(O)c2)C(=O)OC)c(O)c([N+](=O)[O-])c1` the half-life [1] was 66 min and the half-life [2] was 7 min.
